# Where two headings read alike, the source gives them in different places.
# Legend:
# [1] = ether bond, 20-membered ring, PPh3/DIAD, THF
# [2] = ether bond, PPh3/DIAD, THF
# NL-RLuc virus = test: Inhibition of HIV replication (NL-RLuc virus, luciferase readout, MT-2 cells); format: cell-based; conditions: Human immunodeficiency virus 1, MT2, 120 h
# Source text: Inhibition of HIV Replication:
# A recombinant NL-RLuc proviral clone was constructed in which a section of the nef gene from NL4-3 was replaced with the Renilla Luciferase gene. This virus is fully infectious and can undergo multiple cycles of replication in cell culture. In addition, the luciferous reporter provides a simple and easy method for quantitating the extent of virus growth and consequently, the antiviral activity of test compounds. The plasmid pNLRLuc contains the proviral NL-Rluc DNA cloned into pUC18 at the PvuII site. The NL-RLuc virus was prepared by transfection of 293T cells with the plasmid pNLRLuc. Transfections were performed using the LipofectAMINE PLUS kit from Invitrogen (Carlsbad, Calif.) according to the manufacturer and the virus generated was titered in MT-2 cells. For susceptibility analyses, the titrated virus was used to infect MT-2 cells in the presence of compound, and after 5 days of incubation, cells were processed and quantitated for virus growth by the amount of expressed luciferase. Assay media was RPMI 1640 supplemented with 10% heat inactivated fetal bovine serum (FBS), 100 units/ml penicillin G/100 units/ml streptomycin, 10 mM HEPES buffer pH 7.55 and 2 mM L-glutamine. The results from at least 2 experiments were used to calculate the EC50 values. Luciferase was quantitated using the Dual Luciferase kit from Promega (Madison, Wis.). Susceptibility of viruses to compounds was determined by incubation in the presence of serial dilutions of the compound. The 50% effective concentration (EC50) was calculated by using the exponential form of the median effect equation where (Fa)=1/[1+(ED50/drug conc.)^m] (Johnson V A, Byington R T. Infectivity Assay. In Techniques in HIV Research. ed. Aldovini A, Walker B D. 71-76. New York: Stockton Press. 1990). Activity equal to A refers to a compound having an EC50≤100 nM, while B and C denote compounds having an EC50 between 100 nM and luM (B) or >1 uM (C).
# [3] = from COC(=O)[C@@H](OC(C)(C)C)c1c(C)c(C)c2nc(-c3cccc(-c4cc(F)c(F)cc4O)c3)c(C)n2c1N1CCC(C)(OCCOC[C@@H](C)O)CC1, 2.77 mM, 1.0 h, 2 steps
# [4] = from COC(=O)[C@@H](OC(C)(C)C)c1c(C)c(C)c2nc(-c3cccc(-c4c(O)cc(C)cc4F)c3)cn2c1N1CCC(C)(OCCOC[C@@H](C)O)CC1, 6.7 mM, 1.0 h, 2 steps
# [5] = from COC(=O)[C@@H](OC(C)(C)C)c1c(C)c(C)c2nc(-c3cccc(-c4cc(C)ccc4O)c3)cn2c1N1CCC(C)(OCCOC[C@@H](C)O)CC1, 3.49 mM, 25.0 °C, 16.0 h
# [6] = from COC(=O)[C@@H](OC(C)(C)C)c1c(C)c(C)c2nc(-c3cccc(-c4cc(F)ccc4O)c3)cn2c1N1CCC(C)(OCCOC[C@@H](C)O)CC1, 47.0 mM, 18.0 h
structure (smiles),measurement,setting,value
COC(=O)[C@@H](OC(C)(C)C)c1c(C)c(C)c2nc3c(C)n2c1N1CCC(C)(CC1)OCCOC[C@H](C)Oc1cc(F)c(F)cc1-c1cccc-3c1,"ring closure, isolated yield",[1]; [3],30%
same,"ring closure, yield of all isomers",[2]; [3],30%
COC(=O)[C@@H](OC(C)(C)C)c1c(C)c(C)c2nc3cn2c1N1CCC(C)(CC1)OCCOC[C@H](C)Oc1cc(C)cc(F)c1-c1cccc-3c1,"ring closure, isolated yield",[1]; [4],81%
same,"ring closure, yield of all isomers",[2]; [4],81%
COC(=O)[C@@H](OC(C)(C)C)c1c(C)c(C)c2nc3cn2c1N1CCC(C)(CC1)OCCOC[C@H](C)Oc1ccc(C)cc1-c1cccc-3c1,"ring closure, isolated yield",[1]; [5],60%
same,"ring closure, yield of all isomers",[2]; [5],60%
COC(=O)[C@@H](OC(C)(C)C)c1c(C)c(C)c2nc3cn2c1N1CCC(C)(CC1)OCCOC[C@H](C)Oc1ccc(F)cc1-c1cccc-3c1,"ring closure, isolated yield",[1]; [6],59%
same,"ring closure, yield of all isomers",[2]; [6],59%
"Cc1c([C@H](OC(C)(C)C)C(=O)O)c2n3cc(nc3c1C#N)-c1cccc(c1)-c1cc(F)c(F)cc1O[C@@H](C)COCCOC1(C)CCN2CC1 [Example 17, (2S)-2-(tert-Butoxy)-2-[(22S)-5-cyano-17,18-difluoro-4,22,28-trimethyl-21,24,27-trioxa-1,7,34-triazahexacyclo[26.2.2.1^6,^9.1^1^0,^1^4.0^2,^7.0^1^5,^2^0]tetratriaconta-2,4,6(34),8,10(33),11,13,15(20),16,18-decaen3-yl]acetic Acid]",EC50,NL-RLuc virus; read-out: Activity,< 0.1 µM
"Cc1cc(F)c2c(c1)O[C@@H](C)COCCOC1(C)CCN(CC1)c1c([C@H](OC(C)(C)C)C(=O)O)c(C)cc3nc(cn13)-c1cccc-2c1 [Example 18, (2S)-2-(tert-Butoxy)-2-[(22S)-16-fluoro-4,18,22,28-tetramethyl-21,24,27-trioxa-1,7,34-triazahexacyclo[26.2.2.1^6,^9.1^1^0,^1^4.0^2,^7.0^1^5,^2^0]tetratriaconta-2,4,6(34),8,10(33),11,13,15(20),16,18-decaen-3-yl]acetic Acid]",EC50,NL-RLuc virus; read-out: Activity,< 0.1 µM
"Cc1cc(F)c2c(c1)O[C@@H](C)COCCOC1(C)CCN(CC1)c1c([C@H](OC(C)(C)C)C(=O)O)c(C)c(C)c3nc(cn13)-c1cccc-2c1 [Example 19, (2S)-2-(tert-Butoxy)-2-((6S,Z)-46-fluoro-14,27,28,44,6-pentamethyl-5,8,11-trioxa-2(5,2)-imidazo[1,2-a]pyridina-1(1,4)-piperidina-3(1,3),4(1,2)-dibenzenacycloundecaphane-26-yl)acetic Acid]",EC50,NL-RLuc virus; read-out: Activity,< 0.1 µM
"Cc1cc(F)c2c(c1)O[C@@H](C)COCCOC1(C)CCN(CC1)c1c([C@H](OC(C)(C)C)C(=O)O)c(C)c(C)c3nc(c(Cl)n13)-c1cccc-2c1 [Example 21, (2S)-2-(tert-Butoxy)-2-((6S,E)-23-chloro-46-fluoro-14,27,28,44,6-pentamethyl-5,8,11-trioxa-2(5,2)-imidazo[1,2-a]pyridina-1(1,4)-piperidina-3(1,3),4(1,2)-dibenzenacycloundecaphane-26-yl)acetic acid]",EC50,NL-RLuc virus; read-out: Activity,< 0.1 µM
same,EC50,NL-RLuc virus; read-out: EC50 μM,0.002 µM
"Cc1ccc2c(c1)O[C@@H](C)COCCOC1(C)CCN(CC1)c1c([C@H](OC(C)(C)C)C(=O)O)c(C)cc3nc(cn13)-c1cccc-2c1 [Example 22, (2S)-2-(tert-Butoxy)-2-[(22S)-4,18,22,28-tetramethyl-21,24,27-trioxa-1,7,34-triazahexacyclo[26.2.2.1^6,^9.1^1^0,^1^4.0^2,^7.0^1^5,^2^0]tetratriaconta-2,4,6(34),8,10(33),11,13,15(20),16,18-decaen-3-yl]acetic Acid]",EC50,NL-RLuc virus; read-out: Activity,< 0.1 µM
"Cc1ccc2c(c1)O[C@@H](C)COCCOC1(C)CCN(CC1)c1c([C@H](OC(C)(C)C)C(=O)O)c(C)c(C)c3nc(cn13)-c1cccc-2c1 [Example 23, (2S)-2-(tert-Butoxy)-2-((6S,Z)-14,27,28,44,6-pentamethyl-5,8,11-trioxa-2(5,2)-imidazo[1,2-a]pyridina-1(1,4)-piperidina-3(1,3),4(1,2)-dibenzenacycloundecaphane-26-yl)acetic Acid]",EC50,NL-RLuc virus; read-out: Activity,< 0.1 µM
"Cc1ccc2c(c1)O[C@@H](C)COCCOC1(C)CCN(CC1)c1c([C@H](OC(C)(C)C)C(=O)O)c(C)c(C)c3nc(c(Cl)n13)-c1cccc-2c1 [Example 24, (2S)-2-(tert-Butoxy)-2-((6S,E)-23-chloro-14,27,28,44,6-pentamethyl-5,8,11-trioxa-2(5,2)-imidazo[1,2-a]pyridina-1(1,4)-piperidina-3(1,3),4(1,2)-dibenzenacycloundecaphane-26-yl)acetic Acid]",EC50,NL-RLuc virus; read-out: Activity,< 0.1 µM
"Cc1ccc2c(c1)-c1cccc(c1)-c1cn3c(c([C@H](OC(C)(C)C)C(=O)O)c(C)cc3n1)N1CCC(C)(CC1)OCCOC[C@H](C)O2 [Example 25, (2S)-2-(tert-Butoxy)-2-[(22S)-4,17,22,28-tetramethyl-21,24,27-trioxa-1,7,34-triazahexacyclo[26.2.2.1^6,^9.1^1^0,^1^4.0^2,^7.0^1^5,^2^0]tetratriaconta-2,4,6(34),8,10(33),11,13,15(20),16,18-decaen-3-yl]acetic acid]",EC50,NL-RLuc virus; read-out: Activity,< 0.1 µM
same,EC50,NL-RLuc virus; read-out: EC50 μM,0.002 µM
"Cc1ccc2c(c1)-c1cccc(c1)-c1cn3c(c([C@H](OC(C)(C)C)C(=O)O)c(C)c(C)c3n1)N1CCC(C)(CC1)OCCOC[C@H](C)O2 [Example 26, (2S)-2-(tert-Butoxy)-2-[(22S)-4,5,17,22,28-pentamethyl-21,24,27-trioxa-1,7,34-triazahexacyclo[26.2.2.1^6,^9.1^1^0,^1^4.0^2,^7.0^1^5,^2^0]tetratriaconta-2,4,6(34),8,10(33),11,13,15(20),16,18-decaen-3-yl]acetic Acid]",EC50,NL-RLuc virus; read-out: Activity,< 0.1 µM
"Cc1ccc2c(c1)-c1cccc(c1)-c1nc3c(C)c(C)c([C@H](OC(C)(C)C)C(=O)O)c(n3c1Cl)N1CCC(C)(CC1)OCCOC[C@H](C)O2 [Example 27, (2S)-2-(tert-Butoxy)-2-[(22S)-8-chloro-4,5,17,22,28-pentamethyl-21,24,27-trioxa-1,7,34-triazahexacyclo[26.2.2.1^6,^9.1^1^0,^1^4.0^2,^7.0^1^5,^2^0]tetratriaconta-2,4,6(34),8,10(33),11,13,15(20),16,18-decaen-3-yl]acetic Acid]",EC50,NL-RLuc virus; read-out: Activity,< 0.1 µM
"Cc1c([C@H](OC(C)(C)C)C(=O)O)c2n3cc(nc3c1C)-c1cccc(c1)-c1cc(F)ccc1O[C@@H](C)COCCOC1(C)CCN2CC1 [Example 28, (2S)-2-(tert-Butoxy)-2-((6S,Z)-45-fluoro-14,27,28,6-tetramethyl-5,8,11-trioxa-2(5,2)-imidazo[1,2-a]pyridina-1(1,4)-piperidina-3(1,3),4(1,2)-dibenzenacycloundecaphane-26-yl)acetic Acid]",EC50,NL-RLuc virus; read-out: Activity,< 0.1 µM
"Cc1c([C@H](OC(C)(C)C)C(=O)O)c2n3c(Cl)c(nc3c1C)-c1cccc(c1)-c1cc(F)ccc1O[C@@H](C)COCCOC1(C)CCN2CC1 [Example 29, (2S)-2-(tert-butoxy)-2-((6S,E)-23-chloro-45-fluoro-14,27,28,6-tetramethyl-5,8,11-trioxa-2(5,2)-imidazo[1,2-a]pyridina-1(1,4)-piperidina-3(1,3),4(1,2)-dibenzenacycloundecaphane-26-yl)acetic Acid]",EC50,NL-RLuc virus; read-out: Activity,< 0.1 µM
same,EC50,NL-RLuc virus; read-out: EC50 μM,0.001 µM
